Experimental data as given in PMC9180621, “Preparation of Novel Pyrazolo[4,3-e]tetrazolo[1,5-b][1,2,4]triazine Sulfonamides and Their Experimental and Computational Biological Studies” (International Journal of Molecular Sciences, 2022).

How the values were obtained:
[1] = test system: PC-3 cells; assay: Dual acridine orange/ethidium bromide (AO/EB) fluorescent staining, apoptosis; format: cell-based, human; details: PC-3, 48 h incubation, control 1.5 ± 0.7%; for mean % of apoptotic cells: AO/EB, ± SD; for % of apoptotic cells, both tested concentrations: IC50 and 2xIC50, AO/EB
Experimental: (§1) Data are presented as mean percentage of apoptotic cells (early and late apoptotic) ± SD values. The differences between the experimental samples and vehicle control were evaluated by the ANOVA test followed by Tukey’s test (p < 0.05). Experiments were performed in triplicate. For flow cytometry analysis with Annexin V-FITC staining, the approximate number of analyzed cells was (N = 1 × 10^4), contrasting with the dual acridine orange/ethidium bromide (AO/EB) fluorescent staining (N = 200). Acridine orange/ethidium bromide (AO/EB) staining is used to detect nuclear alterations and the development of apoptotic bodies, which are both indicative of apoptosis. Acridine orange penetrates into living cells, emitting green fluorescence after intercalation into DNA. The second dye, ethidium bromide, emits red fluorescence in cells with an altered cell membrane. The cells are divided into three categories as follows: living cells (green nucleus with red orange cytoplasm); apoptotic (green irregularly nuclei with chromatin condensation or fragmentation); and necrotic cells (uniformly orange-stained cell nuclei). Programmed cell death is measured by counting the number of cells that undergo apoptosis under a fluorescent microscope. BxPC-3 and PC-3 cells were seeded at an appropriate density on 12-well plates (Table 9). […] Following the incubation period, cells were incubated with fluorochromes (AO/EB: 100 µM; 1:1, v/v) for 5 min at 37 °C in the dark. Viable, apoptotic, or necrotic cells were distinguished using this method based on differential uptake of fluorescent DNA-binding dyes (AO/EB) with the structural aspect of chromatin condensation in the stained nucleus. Cells were analyzed using a fluorescence microscope (Olympus BX60 F5 Olympus Optical Co., Ltd., Nagano, Japan) at 360 nm. The results were obtained from three independent experiments.

[2] = test system: BxPC-3 cells; assay: as above; format: cell-based, human; details: for increase in the apoptotic cell fraction: BxPC-3, both tested concentrations (IC50, 2xIC50), 24 and 48 h incubation
Experimental: as §1

[3] = test system: HCT-116 cells; assay: MTT assay, cell viability; format: cell-based; details: Homo sapiens, HCT-116, 72 h incubation, ± SD
Experimental: (§2) A statistical program (Graphpad Prism 7) was used to analyze obtained data (MTT test). The dose–response analysis was performed to estimate the inhibitory concentration (IC50) of the tested compounds. The IC50 value is defined as a concentration of the tested compound that leads to a reduction in cell pool viability by 50% compared to the negative control (accepted as 100%). % cell viability=Absorbance value of treated cells−Absorbance value of blank/Absorbance value of untreated cells−Absorbance value of blank×100%
To estimate cell viability following 72 h incubation with the tested MM-compounds (MM134, MM136, MM137, and MM139), the MTT test was used according to the PN-EN ISO 10993-5. It is a quantitative method based on the tetrazolium yellow dye MTT [3(4,5-dimethyl-2-thiazolyl)-2,5-diphenyl-2H-tetrazolium bromide], which is converted by living cells to a purple product, formazan, the concentration of which was measured colorimetrically. The MTT assay was performed according to the procedure described by Mosmann with modifications. At a density of approximately 8 × 10^3 cells per 100 µL/well, 96-well plates were seeded. Following the given incubation period in controlled conditions (37 °C; 5% CO2), cells were exposed to different concentrations of tested compounds in DMSO (range 0.05–3 µM) in a volume of 100 µL medium per well. Final solvent concentration of DMSO was < 0.5% v/v. The experimental design included vehicle controls and blanks (wells without cells).
(§3) After 72 h of incubation of cells with tested MM-compounds, 20 µL of MTT tetrazolium salt (5 mg/mL in PBS) was added to each well, and plates were incubated once again in a humidified atmosphere for 3 h (37 °C; 5% CO2). Following the incubation time, the solutions were removed and 100 µL of DMSO was added to dissolve the formazan complexes. Subsequently, a spectrophotometer (microplate reader Power Wave XS BioTek Instruments, Inc., Winooski, VT, USA) reading was performed at 570 nm. The experiments were performed in duplicates.

[4] = test system: cancer cell lines (BxPC-3, HCT-116, PC-3); assay: MTT assay, cancer cell lines together; format: cell-based; details: Homo sapiens; range over BxPC-3, HCT-116, PC-3; 72 h MTT; read-out: IC50 values in cancer cells
Experimental: as §2
To estimate cell viability following 72 h incubation with the tested MM-compounds (MM134, MM136, MM137, and MM139), the MTT test was used according to the PN-EN ISO 10993-5. It is a quantitative method based on the tetrazolium yellow dye MTT [3(4,5-dimethyl-2-thiazolyl)-2,5-diphenyl-2H-tetrazolium bromide], which is converted by living cells to a purple product, formazan, the concentration of which was measured colorimetrically. […]
as §3, with “Following the incubation time, the solutions were removed and 100 µL of DMSO was added to dissolve the formazan complexes.” left out, “The experiments were performed in duplicates.” left out

Row | SMILES | mean % of apoptotic cells ([1]; 2xIC50 concentration) | mean % of apoptotic cells ([1]; IC50 concentration) | increase in the apoptotic cell fraction [2] | % of apoptotic cells, both tested concentrations [1] | increase in apoptotic fraction ([2]; BxPC-3, IC50 concentration, 24 h incubation) | IC50 [3] | IC50 [4]
1 | Cc1nn(-c2ccc(S(=O)(=O)NCCN3CCOCC3)cc2)c2nn3nnnc3nc12 [MM134] | 11 ± 1.41% | 8.5 ± 0.7% | statistically significant increase | – | – | – | –
2 | Cc1nn(-c2ccc(S(=O)(=O)N3CCN(C)CC3)cc2)c2nn3nnnc3nc12 [MM137] | 24 ± 1.41% | 15 ± 2.82% | – | statistically significant increase | did not induce a significant increase | 0.14 ± 0.02 µM | 0.11 to 0.16 µM
3 | Cc1nn(-c2ccc(S(=O)(=O)N3CCCCC3)cc2)c2nn3nnnc3nc12 [MM139] | 12.5 ± 0.7% | 13.5 ± 3.53% | statistically significant increase | statistically significant increase | – | 0.35 ± 0.05 µM | –
